Test results taken from patent US20070117770A1, “Human ribosomal DNA (rDNA) and ribosomal RNA (rRNA) nucleic acids and uses thereof” (Cylene Pharmaceuticals, Inc., priority 2005, published 2007).

Key:
Assay in all cases: Protein kinase inhibition assay
EphB4(h) = EphB4(h) (Homo sapiens, UniProt P54760); assay type: biochemical; details: read-out: percent residual activity of EphB4(h)
Method: (§1) Certain compounds were tested for activity in protein kinase inhibition assays. All substrates were dissolved and diluted to working stocks in de-ionized water, apart from histone H1 (10× working stock in 20 mM MOPS pH 7.0), PDKtide (10× working stock in 50 mM Tris pH 7.0) ATF2 (which is typically stored at a 20× working stock in 50 mM Tris pH 7.5, 150 mM NaCl, 0.1 mM EGTA, 0.03% Brij-35, 50% glycerol, 1 mM benzamidine, 0.2 mM PMSF and 0.1% R-mercaptoethanol), KKLNRTLSFAEPG (SEQ ID NO:203) and RRRLSFAEPG (SEQ ID NO:204) (50 mM HEPES pH 7.4) and GGEEEEYFELVKKKK (SEQ ID NO:205) (20 mM MOPS pH 7.0). All kinases were pre-diluted to a 10× working concentration prior to addition into the assay. The composition of the dilution buffer for each kinase is detailed below.
(§2) In a final reaction volume of 25 μl, EphB4 (h) (5-10 mU) is incubated with 8 mM MOPS pH 7.0, 0.2 mM EDTA, 10 mM MnCl2, 0.1 mg/ml poly(Glu, Tyr) 4:1, 10 mM MgAcetate and [gamma-33P-ATP] (specific activity approx. 500 cpm/pmol, concentration as required). The reaction is initiated by the addition of the MgATP mix. After incubation for 40 minutes at room temperature, the reaction is stopped by the addition of 5 μl of a 3% phosphoric acid solution. 10 μl of the reaction is then spotted onto a Filtermat A and washed three times for 5 minutes in 75 mM phosphoric acid and once in methanol prior to drying and scintillation counting.

TrkA(h) = TrkA(h) (Homo sapiens, UniProt P04629); assay type: biochemical; details: read-out: percent residual activity of TrkA(h)
Method: as §1
as §2, with “TrkA” for “EphB4”, “250 μM KKKSPGEYVNIEFG (SEQ ID NO:207),” for “10 mM MnCl2, 0.1 mg/ml poly(Glu, Tyr) 4:1,”, “P30 filtermat” for “Filtermat A”

FGFR3(h) = FGFR3(h) (Homo sapiens, UniProt P22607); assay type: biochemical; details: read-out: percent residual activity of FGFR3(h)
Method: as §1
In a final reaction volume of 25 μl, FGFR3 (h) (5-10 mU) is incubated with 8 mM MOPS pH 7.0, 0.2 mM EDTA, 0.1 mg/ml poly(Glu, Tyr) 4:1, 10 mM MnCl2, 10 mM MgAcetate and [y-33P-ATP] (specific activity approx. 500 cpm/pmol, concentration as required). The reaction is initiated by the addition of the MgATP mix. After incubation for 40 minutes at room temperature, the reaction is stopped by the addition of 5 μl of a 3% phosphoric acid solution. 10 μl of the reaction is then spotted onto a Filtermat A and washed three times for 5 minutes in 75 mM phosphoric acid and once in methanol prior to drying and scintillation counting.

PDK1(h) = PDK1(h) (Homo sapiens, UniProt O15530); assay type: biochemical; details: read-out: percent residual activity of PDK1(h)
Method: as §1
In a final reaction volume of 25 μl, PDK1 (h) (5-10 mU) is incubated with 50 mM Tris pH 7.5, 100 μM […] (SEQ ID NO:217) (PDKtide), 0.1% R-mercaptoethanol, 10 mM MgAcetate and [gamma-33P-ATP] (specific activity approx. 500 cpm/pmol, concentration as required). The reaction is initiated by the addition of the MgATP mix. After incubation for 40 minutes at room temperature, the reaction is stopped by the addition of 5 μl of a 3% phosphoric acid solution. […]

CK1(y) = assay type: biochemical, yeast; details: 2.5 μM
Method: as §1
as §2, with “25 μl, CK1 (y) (5-10 mU)” for “25 μl, EphB4 (h) (5-10 mU)”, “mM EDTA, 200 μM KRRRALS(p)VASLPGL (SEQ ID NO:214), 10 mM” for “mM EDTA, 10 mM MnCl2, 0.1 mg/ml poly(Glu, Tyr) 4:1, 10 mM”, “of 5 μL of a” for “of 5 μl of a”, “onto a P30 filtermat and washed” for “onto a Filtermat A and washed”

ROCK-I(h) = ROCK-I(h) (Homo sapiens, UniProt Q13464); assay type: biochemical; details: read-out: percent residual activity of ROCK-I(h)
Method: as §1
as §2, with “ROCK-I” for “EphB4”, “30 μM […] (SEQ ID NO:222),” for “10 mM MnCl2, 0.1 mg/ml poly(Glu, Tyr) 4:1,”, “P30 filtermat” for “Filtermat A”

Chain of PDK1(h) (O15530 whole entry): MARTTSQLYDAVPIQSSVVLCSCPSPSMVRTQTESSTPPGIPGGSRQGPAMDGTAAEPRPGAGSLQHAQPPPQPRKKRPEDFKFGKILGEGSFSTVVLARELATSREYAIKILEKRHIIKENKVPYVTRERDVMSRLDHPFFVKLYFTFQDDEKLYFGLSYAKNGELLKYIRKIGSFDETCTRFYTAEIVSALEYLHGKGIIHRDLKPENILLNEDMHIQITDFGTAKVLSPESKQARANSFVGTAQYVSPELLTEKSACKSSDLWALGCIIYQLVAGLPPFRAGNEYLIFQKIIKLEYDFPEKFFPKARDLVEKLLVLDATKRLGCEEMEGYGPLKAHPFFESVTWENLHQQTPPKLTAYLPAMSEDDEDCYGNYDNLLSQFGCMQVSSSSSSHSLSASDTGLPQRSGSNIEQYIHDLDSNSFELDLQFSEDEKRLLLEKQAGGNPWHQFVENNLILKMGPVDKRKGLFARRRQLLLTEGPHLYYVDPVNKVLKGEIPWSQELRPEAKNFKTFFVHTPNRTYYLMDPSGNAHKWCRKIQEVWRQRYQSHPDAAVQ
Chain of ROCK-I(h) (Q13464 whole entry): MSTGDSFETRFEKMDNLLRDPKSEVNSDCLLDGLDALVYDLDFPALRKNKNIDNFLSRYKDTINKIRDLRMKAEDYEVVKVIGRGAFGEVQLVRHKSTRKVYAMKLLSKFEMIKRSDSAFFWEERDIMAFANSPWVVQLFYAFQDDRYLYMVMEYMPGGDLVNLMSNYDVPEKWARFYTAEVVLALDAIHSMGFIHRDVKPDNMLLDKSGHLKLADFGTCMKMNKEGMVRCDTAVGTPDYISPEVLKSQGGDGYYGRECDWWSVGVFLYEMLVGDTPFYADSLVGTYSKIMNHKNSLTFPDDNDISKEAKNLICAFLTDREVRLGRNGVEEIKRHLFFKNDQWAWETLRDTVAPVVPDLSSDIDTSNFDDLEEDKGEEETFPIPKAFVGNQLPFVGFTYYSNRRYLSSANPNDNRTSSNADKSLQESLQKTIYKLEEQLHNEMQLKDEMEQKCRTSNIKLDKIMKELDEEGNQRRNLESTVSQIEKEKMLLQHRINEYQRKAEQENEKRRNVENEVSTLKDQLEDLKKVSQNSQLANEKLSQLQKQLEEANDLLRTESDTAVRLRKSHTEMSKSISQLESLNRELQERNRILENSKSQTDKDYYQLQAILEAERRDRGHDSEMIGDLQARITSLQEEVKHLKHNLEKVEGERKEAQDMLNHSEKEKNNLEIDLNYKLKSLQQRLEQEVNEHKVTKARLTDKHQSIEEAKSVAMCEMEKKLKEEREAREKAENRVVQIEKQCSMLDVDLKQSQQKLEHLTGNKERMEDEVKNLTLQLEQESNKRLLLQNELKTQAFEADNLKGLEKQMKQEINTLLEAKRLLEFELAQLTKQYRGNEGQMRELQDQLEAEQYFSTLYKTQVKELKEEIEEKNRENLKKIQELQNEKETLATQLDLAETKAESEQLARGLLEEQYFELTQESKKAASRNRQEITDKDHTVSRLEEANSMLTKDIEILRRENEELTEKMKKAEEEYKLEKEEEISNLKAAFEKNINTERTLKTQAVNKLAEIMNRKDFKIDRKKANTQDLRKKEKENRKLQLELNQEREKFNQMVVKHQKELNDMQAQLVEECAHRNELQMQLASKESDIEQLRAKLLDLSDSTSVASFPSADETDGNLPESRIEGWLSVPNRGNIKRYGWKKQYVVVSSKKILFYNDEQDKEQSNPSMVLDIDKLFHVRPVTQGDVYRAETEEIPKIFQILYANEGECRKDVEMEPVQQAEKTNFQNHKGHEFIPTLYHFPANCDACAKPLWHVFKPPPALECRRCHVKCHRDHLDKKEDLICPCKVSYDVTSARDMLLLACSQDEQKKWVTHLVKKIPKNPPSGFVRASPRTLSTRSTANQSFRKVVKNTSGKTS
Chain of FGFR3(h) (P22607 23-806): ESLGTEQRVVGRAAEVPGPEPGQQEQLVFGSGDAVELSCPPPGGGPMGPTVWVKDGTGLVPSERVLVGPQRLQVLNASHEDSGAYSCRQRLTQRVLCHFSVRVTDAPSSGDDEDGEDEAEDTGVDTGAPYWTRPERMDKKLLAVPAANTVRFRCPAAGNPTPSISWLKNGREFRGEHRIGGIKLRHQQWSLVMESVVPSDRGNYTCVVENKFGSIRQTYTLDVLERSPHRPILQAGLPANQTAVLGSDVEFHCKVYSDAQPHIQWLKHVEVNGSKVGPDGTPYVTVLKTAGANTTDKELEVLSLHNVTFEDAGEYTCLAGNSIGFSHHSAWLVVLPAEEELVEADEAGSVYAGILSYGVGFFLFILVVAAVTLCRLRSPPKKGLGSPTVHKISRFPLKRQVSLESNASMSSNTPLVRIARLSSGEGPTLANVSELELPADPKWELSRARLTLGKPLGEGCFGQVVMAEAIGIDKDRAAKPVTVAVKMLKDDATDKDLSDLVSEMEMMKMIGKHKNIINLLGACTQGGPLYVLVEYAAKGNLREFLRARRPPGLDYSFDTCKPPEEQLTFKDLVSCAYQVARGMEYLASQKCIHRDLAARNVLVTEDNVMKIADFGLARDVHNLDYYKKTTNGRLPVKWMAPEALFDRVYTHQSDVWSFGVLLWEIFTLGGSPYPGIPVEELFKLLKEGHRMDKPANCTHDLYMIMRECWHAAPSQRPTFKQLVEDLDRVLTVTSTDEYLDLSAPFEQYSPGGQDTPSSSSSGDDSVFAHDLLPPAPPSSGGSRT
Chain of EphB4(h) (P54760 16-987): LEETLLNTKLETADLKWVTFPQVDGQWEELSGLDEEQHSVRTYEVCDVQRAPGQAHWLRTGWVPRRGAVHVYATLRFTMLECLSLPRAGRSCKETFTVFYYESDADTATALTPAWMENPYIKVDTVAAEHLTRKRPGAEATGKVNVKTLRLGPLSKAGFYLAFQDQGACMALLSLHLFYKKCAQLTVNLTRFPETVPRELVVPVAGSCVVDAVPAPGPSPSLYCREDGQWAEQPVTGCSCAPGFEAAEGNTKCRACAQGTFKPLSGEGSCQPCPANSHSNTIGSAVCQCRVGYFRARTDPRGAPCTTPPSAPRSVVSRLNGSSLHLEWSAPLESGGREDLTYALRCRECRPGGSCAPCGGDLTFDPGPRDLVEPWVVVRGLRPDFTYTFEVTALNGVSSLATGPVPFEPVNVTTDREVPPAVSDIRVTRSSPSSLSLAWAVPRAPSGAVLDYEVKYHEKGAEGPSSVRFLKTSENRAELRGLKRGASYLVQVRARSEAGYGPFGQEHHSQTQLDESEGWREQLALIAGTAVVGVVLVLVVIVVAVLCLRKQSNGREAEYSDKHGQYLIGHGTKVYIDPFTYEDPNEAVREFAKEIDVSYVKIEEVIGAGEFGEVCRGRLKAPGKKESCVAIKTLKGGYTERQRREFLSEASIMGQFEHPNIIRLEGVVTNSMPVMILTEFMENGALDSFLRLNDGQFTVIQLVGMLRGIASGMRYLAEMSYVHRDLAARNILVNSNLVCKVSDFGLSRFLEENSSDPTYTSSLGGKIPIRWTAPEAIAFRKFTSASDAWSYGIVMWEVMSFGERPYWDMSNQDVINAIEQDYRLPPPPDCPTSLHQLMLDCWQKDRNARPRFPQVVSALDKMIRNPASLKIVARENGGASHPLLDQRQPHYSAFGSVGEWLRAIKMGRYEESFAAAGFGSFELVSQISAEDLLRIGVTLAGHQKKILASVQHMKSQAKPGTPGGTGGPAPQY
Chain of TrkA(h) (P04629 33-796): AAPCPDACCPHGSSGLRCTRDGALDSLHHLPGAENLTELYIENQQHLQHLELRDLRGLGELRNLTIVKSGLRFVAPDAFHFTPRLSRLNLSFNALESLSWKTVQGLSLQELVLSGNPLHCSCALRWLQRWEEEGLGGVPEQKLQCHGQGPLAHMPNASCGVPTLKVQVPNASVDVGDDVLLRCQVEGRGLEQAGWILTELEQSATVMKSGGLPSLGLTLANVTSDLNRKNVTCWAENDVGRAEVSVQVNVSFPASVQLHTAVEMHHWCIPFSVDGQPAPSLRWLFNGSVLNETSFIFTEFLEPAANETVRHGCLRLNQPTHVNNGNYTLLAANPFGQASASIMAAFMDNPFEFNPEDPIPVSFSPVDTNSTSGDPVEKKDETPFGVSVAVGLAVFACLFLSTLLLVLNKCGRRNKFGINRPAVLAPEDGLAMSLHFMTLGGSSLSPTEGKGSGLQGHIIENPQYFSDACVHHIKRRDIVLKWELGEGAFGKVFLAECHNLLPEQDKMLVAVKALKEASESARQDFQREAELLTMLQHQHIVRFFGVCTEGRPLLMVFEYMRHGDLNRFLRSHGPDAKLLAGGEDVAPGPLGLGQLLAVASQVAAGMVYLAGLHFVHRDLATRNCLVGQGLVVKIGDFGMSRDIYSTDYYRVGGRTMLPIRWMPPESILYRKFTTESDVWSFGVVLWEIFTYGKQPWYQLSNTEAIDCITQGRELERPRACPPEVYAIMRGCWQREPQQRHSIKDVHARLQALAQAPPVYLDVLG

remaining activity at 2.5 µM (EphB4(h))	remaining activity at 2.5 µM (TrkA(h))	remaining activity at 2.5 µM (FGFR3(h))	remaining activity at 2.5 µM (PDK1(h))	percent residual activity of CK1(y) (CK1(y))	remaining activity at 2.5 µM (ROCK-I(h))	Structure (SMILES)
108%	80%	116%	109%	77%	101%	CC(=O)N1CCN(c2ccc3c(=O)c(C(=O)NCCN4CCCC4)c4n(C)c5ccccc5n4c3n2)CC1 [Compound B-1]
96%	25%	101%	121%	78%	91%	CN1CCCC1CCNC(=O)c1cn2c3c(c(N4CCC(c5cnccn5)C4)c(F)cc3c1=O)Oc1cc3ccccc3cc1-2 (stereo not drawn) [Compound A-1]
